Measured values as given in patent US7754759B2, “Arylsulfonyl chromans as 5-HT6 inhibitors” (Roche Palo Alto LLC, priority 2005, dated 2010).
Counter-ions that a name gives are not always drawn.

How the values were obtained:
[1] = molecular target: T1, recombinant human 5-HT6 receptor (Homo sapiens, UniProt P50406); assay: Radioligand binding, [3H]LSD competition at 5-HT6 receptor; settings: membranes of HEK293 cells expressing recombinant human 5-HT6 receptor, 37° C., read-out: pKi for the 5-HT6 receptor (converted)
T1 construct: expressed in transfected cells
T1 sequence (P50406 whole entry): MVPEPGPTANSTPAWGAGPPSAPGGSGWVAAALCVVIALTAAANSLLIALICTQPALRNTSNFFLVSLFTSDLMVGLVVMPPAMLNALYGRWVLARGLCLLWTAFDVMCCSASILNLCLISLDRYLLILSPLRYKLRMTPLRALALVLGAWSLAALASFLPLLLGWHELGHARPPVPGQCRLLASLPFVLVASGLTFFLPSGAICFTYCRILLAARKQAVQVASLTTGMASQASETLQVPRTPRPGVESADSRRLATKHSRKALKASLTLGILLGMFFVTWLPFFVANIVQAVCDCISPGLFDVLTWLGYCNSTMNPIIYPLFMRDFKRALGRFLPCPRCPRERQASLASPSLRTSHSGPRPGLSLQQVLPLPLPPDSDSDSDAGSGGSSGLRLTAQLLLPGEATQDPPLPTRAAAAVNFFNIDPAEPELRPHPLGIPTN
Description: (§1) The binding activity of compounds of this invention in vitro was determined as follows. Duplicate determinations of 5-HT6 ligand affinity were made by competing for binding of [^3H]LSD in cell membranes derived from HEK293 cells stably expressing recombinant human 5-HT6 receptor. Duplicate determinations of 5-HT2A ligand affinity were made by competing for binding of [^3H]Ketanserin (3-(2-(4-(4-fluorobenzoyl)piperidinol)ethyl)-2,4(1H,3H)-quinazolinedione) in cell membranes derived from CHO-K1 cells stably expressing recombinant human 5-HT2A receptor. Membranes were prepared from HEK 293 cell lines by the method described by Monsma et al., Molecular Pharmacology, Vol. 43 pp. 320-327 (1993), and from CHO-K1 cell lines as described by Bonhaus et al., Br J Pharmacol. June; 115(4):622-8 (1995).
(§2) For estimation of affinity at the 5-HT6 receptor, all determinations were made in assay buffer containing 50 mM Tris-HCl, 10 mM MgSO4, 0.5 mM EDTA, 1 mM ascorbic acid, pH 7.4 at 37° C., in a 250 microliter reaction volume. […]
(§3) Assay tubes containing [^3H] […] LSD or [^3H]Ketanserin were determined as radioactive counts per minute using Packard TopCount.
(§4) Displacement of [^3H]LSD or [^3H]Ketanserin from the binding sites was quantified by fitting concentration-binding data to a 4-parameter logistic equation: […]

[2] = molecular target: T2, recombinant human 5-HT2A receptor (Homo sapiens, UniProt P28223); assay: Radioligand binding, [3H]Ketanserin competition at 5-HT2A receptor; settings: membranes of CHO-K1 cells expressing recombinant human 5-HT2A receptor, 32° C., read-out: pKi for the 5-HT2A receptor (converted)
T2 construct: expressed in transfected cells
T2 sequence (P28223 whole entry): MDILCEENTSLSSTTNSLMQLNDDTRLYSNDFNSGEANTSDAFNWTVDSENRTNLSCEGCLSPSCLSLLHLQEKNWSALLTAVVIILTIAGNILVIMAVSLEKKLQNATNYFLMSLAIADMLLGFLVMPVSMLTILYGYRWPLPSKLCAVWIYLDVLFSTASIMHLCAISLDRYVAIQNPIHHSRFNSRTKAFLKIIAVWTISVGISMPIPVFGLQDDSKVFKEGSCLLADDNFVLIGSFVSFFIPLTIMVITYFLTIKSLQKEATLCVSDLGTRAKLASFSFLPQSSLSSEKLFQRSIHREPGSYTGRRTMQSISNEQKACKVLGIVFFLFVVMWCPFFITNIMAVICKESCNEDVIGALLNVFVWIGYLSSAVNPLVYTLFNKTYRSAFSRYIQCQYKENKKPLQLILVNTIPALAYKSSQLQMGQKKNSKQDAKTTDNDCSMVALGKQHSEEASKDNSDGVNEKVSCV
Description: as §1, §2, §3, §4

Row | SMILES | melting point | Ki [1] | Ki [2]
1 | CNCC1CC(=O)c2ccc(S(=O)(=O)c3ccccc3)cc2O1 (centres unmarked) (as salt: TFA) [Compound 1, 7-Benzenesulfonyl-2-methylaminomethyl-chroman-4-one] | 157.8 to 189.6 °C | – | –
2 | CNCC1CCc2ccc(S(=O)(=O)c3ccccc3)cc2O1 (centres unmarked) (as salt: TFA) [Compound 3, (7-Benzenesulfonyl-chroman-2-ylmethyl)-methyl-amine] | 196.2 to 198.2 °C | – | –
3 | CNCC1CC(C)(O)c2ccc(S(=O)(=O)c3ccccc3)cc2O1 (centres unmarked) (as salt: trifluoroacetate) [Compound 4, 7-Benzenesulfonyl-4-methyl-2-methylaminomethyl-chroman-4-ol] | 163.9 to 165.3 °C | – | –
4 | C[C@H](O)C(=O)NC[C@H]1CCc2ccc(S(=O)(=O)c3ccccc3)cc2O1 (stereo in doubt) [Compound 30, (R)-N-(7-Benzenesulfonyl-chroman-2-ylmethyl)-2-hydroxy-propionamide] | 129.5 to 131.5 °C | – | –

The next lines start with the values.

Row | melting point | Ki [1] | Ki [2] | SMILES
5 | – | ~0.1 nM | ~56.2 nM | CNC[C@@H]1CCc2ccc(S(=O)(=O)c3ccccc3)cc2O1 [Compound 7, (S)-(7-Benzenesulfonyl-chroman-2-ylmethyl)-methyl-amine]
6 | 259 to 261 °C | – | – | CNC[C@H]1CCc2ccc(S(=O)(=O)c3cccc(F)c3)cc2O1 [Compound 35, (R)-[7-(3-Fluoro-benzenesulfonyl)-chroman-2-ylmethyl]-methyl-amine]
7 | 257.1 to 258.9 °C | – | – | NC[C@H]1CCc2ccc(S(=O)(=O)c3cccc(F)c3)cc2O1 [Compound 46, (R)-C-[7-(3-Fluoro-benzenesulfonyl)-chroman-2-yl]-methylamine]
